# Assay results taken from patent KR20110126596A, “자외선 방지제” (고쿠리츠 다이가쿠 호우징 지바 다이가쿠, priority 2008, dated 2010).
# System: RS cells [RS 세포]
# Assay: MTT assay of UV (UVC) irradiation-induced cell damage in cultured human RS cells pretreated with the substance
# Assay type: cell-based
# Settings: UV 14 J/m2; for resistance to UV-induced cell damage compared with cells cultured without addition (in words): EPH 1/10 or 1/100 (v/v), 1 day, 3 days after irradiation (Fig. 2)
compound,measurement,setting,value
OCCOc1ccccc1 [페녹시에탄올],resistance to UV-induced cell damage compared with cells cultured without addition (in words),listed as EPH,높은 저항성을 나타내었다
same,resistance to UV-induced cell damage compared with cells cultured without addition (in words),listed as 하이솔브 EPH,높은 저항성을 나타낸다
same,"resistance to cell damage by UV irradiation, compared with no addition","phenoxyethanol added at 1/10 - 1/100 (v/v), 1 day pretreatment, MTT 3 days after irradiation",≥ 2 fold
